Like-named read-outs stand apart in the source and are kept apart here.
What was measured:
Experiment in all cases: KinomeScan kinase panel, single concentration 10 µM
Type in all cases: binding
KinomeScan kinase panel [1] = target: T1, KinomeScan kinase panel (Homo sapiens, UniProt P08631); settings: HCK, 10 µM; read-out: score (%)
T1 construct: purchased DiscoveRx (KinomeScan)

KinomeScan kinase panel [2] = target: T2, KinomeScan kinase panel (Homo sapiens, UniProt P10721, V559D); settings: KIT(V559D), 10 µM; read-out: score (%)
T2 construct: purchased DiscoveRx (KinomeScan)

KinomeScan kinase panel [3] = target: T3, KinomeScan kinase panel (Homo sapiens, UniProt P21127); settings: CDC2L1, 10 µM; read-out: score (%)
T3 construct: purchased DiscoveRx (KinomeScan)

KinomeScan kinase panel [4] = target: T4, KinomeScan kinase panel (Homo sapiens, UniProt P22694); settings: PKAC-beta, 10 µM; read-out: score (%)
T4 construct: purchased DiscoveRx (KinomeScan)

KinomeScan kinase panel [5] = target: T5, KinomeScan kinase panel (Homo sapiens, UniProt P35916); settings: FLT4, 10 µM; read-out: score (%)
T5 construct: purchased DiscoveRx (KinomeScan)

KinomeScan kinase panel [6] = target: T6, KinomeScan kinase panel (Homo sapiens, UniProt P36507); settings: MEK2, 10 µM; read-out: score (%)
T6 construct: purchased DiscoveRx (KinomeScan)

KinomeScan kinase panel [7] = target: T7, KinomeScan kinase panel (Homo sapiens, UniProt P42336, E545K); settings: PIK3CA(E545K), 10 µM; read-out: score (%)
T7 construct: purchased DiscoveRx (KinomeScan)

KinomeScan kinase panel [8] = target: T8, KinomeScan kinase panel (Homo sapiens, UniProt P42684); settings: ABL2, 10 µM; read-out: score (%)
T8 construct: purchased DiscoveRx (KinomeScan)

KinomeScan kinase panel [9] = target: T9, KinomeScan kinase panel (Homo sapiens, UniProt P49674); settings: CSNK1E, 10 µM; read-out: score (%)
T9 construct: purchased DiscoveRx (KinomeScan)

KinomeScan kinase panel [10] = target: T10, KinomeScan kinase panel (Homo sapiens, UniProt Q13554); settings: CAMK2B, 10 µM; read-out: score (%)
T10 construct: purchased DiscoveRx (KinomeScan)

KinomeScan kinase panel [11] = target: T11, KinomeScan kinase panel (Homo sapiens, UniProt Q13873); settings: BMPR2, 10 µM
T11 construct: purchased DiscoveRx (KinomeScan)
T11 sequence (Q13873 27-1038): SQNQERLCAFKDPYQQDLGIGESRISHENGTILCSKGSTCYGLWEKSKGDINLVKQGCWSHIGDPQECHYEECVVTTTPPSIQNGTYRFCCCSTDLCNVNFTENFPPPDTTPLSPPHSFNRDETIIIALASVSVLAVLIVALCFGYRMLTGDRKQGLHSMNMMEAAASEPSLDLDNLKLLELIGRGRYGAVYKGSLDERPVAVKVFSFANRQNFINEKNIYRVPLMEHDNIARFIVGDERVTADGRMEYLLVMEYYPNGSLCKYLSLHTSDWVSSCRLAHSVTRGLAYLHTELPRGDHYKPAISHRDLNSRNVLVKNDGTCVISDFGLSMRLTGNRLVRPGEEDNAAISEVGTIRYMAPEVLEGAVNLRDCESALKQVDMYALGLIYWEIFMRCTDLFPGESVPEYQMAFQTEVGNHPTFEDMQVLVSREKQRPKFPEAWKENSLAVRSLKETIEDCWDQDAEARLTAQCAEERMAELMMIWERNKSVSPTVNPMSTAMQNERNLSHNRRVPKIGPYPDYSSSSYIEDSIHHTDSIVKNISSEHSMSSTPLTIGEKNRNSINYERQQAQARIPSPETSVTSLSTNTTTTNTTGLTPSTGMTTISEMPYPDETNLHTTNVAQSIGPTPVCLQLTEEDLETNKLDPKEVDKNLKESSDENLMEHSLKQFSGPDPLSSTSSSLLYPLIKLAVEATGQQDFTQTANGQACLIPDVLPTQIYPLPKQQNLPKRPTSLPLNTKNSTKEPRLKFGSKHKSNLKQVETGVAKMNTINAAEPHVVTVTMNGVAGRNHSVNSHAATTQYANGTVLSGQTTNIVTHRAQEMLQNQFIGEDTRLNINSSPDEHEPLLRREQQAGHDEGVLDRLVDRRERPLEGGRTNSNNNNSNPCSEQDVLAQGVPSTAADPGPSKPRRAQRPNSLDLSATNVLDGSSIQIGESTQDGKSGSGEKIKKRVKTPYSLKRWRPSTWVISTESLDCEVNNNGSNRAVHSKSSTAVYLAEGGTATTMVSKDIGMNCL

KinomeScan kinase panel [12] = target: T12, KinomeScan kinase panel (Homo sapiens, UniProt Q15569); settings: read-out: score (%)
T12 construct: purchased DiscoveRx (KinomeScan)

KinomeScan kinase panel [13] = target: T13, KinomeScan kinase panel (Homo sapiens, UniProt Q16832); settings: DDR2, 10 µM; read-out: score (%)
T13 construct: purchased DiscoveRx (KinomeScan)
T13 sequence (Q16832 22-855): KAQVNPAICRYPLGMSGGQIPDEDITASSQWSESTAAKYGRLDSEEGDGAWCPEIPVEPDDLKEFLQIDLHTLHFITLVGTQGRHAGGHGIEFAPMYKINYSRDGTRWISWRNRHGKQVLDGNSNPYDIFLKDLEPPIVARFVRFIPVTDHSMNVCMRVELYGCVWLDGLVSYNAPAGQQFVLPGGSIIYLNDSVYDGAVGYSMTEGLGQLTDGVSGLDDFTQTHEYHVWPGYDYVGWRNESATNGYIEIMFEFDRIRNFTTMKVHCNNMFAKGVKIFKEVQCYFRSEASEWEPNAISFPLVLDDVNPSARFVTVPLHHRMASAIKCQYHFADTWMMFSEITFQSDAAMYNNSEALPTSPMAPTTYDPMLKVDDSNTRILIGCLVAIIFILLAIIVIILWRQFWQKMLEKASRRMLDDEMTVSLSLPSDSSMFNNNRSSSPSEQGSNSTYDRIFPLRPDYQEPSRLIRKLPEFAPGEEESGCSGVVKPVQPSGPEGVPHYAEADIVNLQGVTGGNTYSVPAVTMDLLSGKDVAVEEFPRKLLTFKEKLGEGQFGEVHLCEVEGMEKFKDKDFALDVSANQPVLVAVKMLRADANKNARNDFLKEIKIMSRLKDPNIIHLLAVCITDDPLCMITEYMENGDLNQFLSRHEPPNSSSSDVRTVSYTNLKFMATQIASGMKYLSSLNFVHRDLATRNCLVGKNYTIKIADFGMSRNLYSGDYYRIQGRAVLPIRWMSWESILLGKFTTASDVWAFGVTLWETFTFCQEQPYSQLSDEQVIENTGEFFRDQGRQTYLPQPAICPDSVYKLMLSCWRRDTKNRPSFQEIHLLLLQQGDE

KinomeScan kinase panel [14] = target: T14, KinomeScan kinase panel (Homo sapiens, UniProt Q9HAZ1); settings: CLK4, 10 µM; read-out: score (%)
T14 construct: purchased DiscoveRx (KinomeScan)

KinomeScan kinase panel [15] = target: T15, KinomeScan kinase panel (Homo sapiens, UniProt Q9UPE1); settings: read-out: score (%)
T15 construct: purchased DiscoveRx (KinomeScan)
T15 sequence (Q9UPE1 whole entry): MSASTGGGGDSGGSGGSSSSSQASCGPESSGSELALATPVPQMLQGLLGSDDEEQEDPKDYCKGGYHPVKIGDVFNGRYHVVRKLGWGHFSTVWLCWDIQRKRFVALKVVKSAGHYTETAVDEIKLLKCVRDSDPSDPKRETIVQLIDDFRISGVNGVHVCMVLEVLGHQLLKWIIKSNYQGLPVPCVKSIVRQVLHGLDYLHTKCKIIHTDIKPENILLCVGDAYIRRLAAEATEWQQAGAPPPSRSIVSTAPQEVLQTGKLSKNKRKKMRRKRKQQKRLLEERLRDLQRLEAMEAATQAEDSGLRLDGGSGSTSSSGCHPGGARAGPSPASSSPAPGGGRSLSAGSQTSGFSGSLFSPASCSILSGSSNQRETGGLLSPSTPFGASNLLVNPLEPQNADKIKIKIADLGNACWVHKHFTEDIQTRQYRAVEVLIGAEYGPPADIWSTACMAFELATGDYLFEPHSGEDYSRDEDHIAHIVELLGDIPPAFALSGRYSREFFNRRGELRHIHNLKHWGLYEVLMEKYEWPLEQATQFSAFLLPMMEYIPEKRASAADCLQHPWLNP

T5 sequence (P35916 25-1363): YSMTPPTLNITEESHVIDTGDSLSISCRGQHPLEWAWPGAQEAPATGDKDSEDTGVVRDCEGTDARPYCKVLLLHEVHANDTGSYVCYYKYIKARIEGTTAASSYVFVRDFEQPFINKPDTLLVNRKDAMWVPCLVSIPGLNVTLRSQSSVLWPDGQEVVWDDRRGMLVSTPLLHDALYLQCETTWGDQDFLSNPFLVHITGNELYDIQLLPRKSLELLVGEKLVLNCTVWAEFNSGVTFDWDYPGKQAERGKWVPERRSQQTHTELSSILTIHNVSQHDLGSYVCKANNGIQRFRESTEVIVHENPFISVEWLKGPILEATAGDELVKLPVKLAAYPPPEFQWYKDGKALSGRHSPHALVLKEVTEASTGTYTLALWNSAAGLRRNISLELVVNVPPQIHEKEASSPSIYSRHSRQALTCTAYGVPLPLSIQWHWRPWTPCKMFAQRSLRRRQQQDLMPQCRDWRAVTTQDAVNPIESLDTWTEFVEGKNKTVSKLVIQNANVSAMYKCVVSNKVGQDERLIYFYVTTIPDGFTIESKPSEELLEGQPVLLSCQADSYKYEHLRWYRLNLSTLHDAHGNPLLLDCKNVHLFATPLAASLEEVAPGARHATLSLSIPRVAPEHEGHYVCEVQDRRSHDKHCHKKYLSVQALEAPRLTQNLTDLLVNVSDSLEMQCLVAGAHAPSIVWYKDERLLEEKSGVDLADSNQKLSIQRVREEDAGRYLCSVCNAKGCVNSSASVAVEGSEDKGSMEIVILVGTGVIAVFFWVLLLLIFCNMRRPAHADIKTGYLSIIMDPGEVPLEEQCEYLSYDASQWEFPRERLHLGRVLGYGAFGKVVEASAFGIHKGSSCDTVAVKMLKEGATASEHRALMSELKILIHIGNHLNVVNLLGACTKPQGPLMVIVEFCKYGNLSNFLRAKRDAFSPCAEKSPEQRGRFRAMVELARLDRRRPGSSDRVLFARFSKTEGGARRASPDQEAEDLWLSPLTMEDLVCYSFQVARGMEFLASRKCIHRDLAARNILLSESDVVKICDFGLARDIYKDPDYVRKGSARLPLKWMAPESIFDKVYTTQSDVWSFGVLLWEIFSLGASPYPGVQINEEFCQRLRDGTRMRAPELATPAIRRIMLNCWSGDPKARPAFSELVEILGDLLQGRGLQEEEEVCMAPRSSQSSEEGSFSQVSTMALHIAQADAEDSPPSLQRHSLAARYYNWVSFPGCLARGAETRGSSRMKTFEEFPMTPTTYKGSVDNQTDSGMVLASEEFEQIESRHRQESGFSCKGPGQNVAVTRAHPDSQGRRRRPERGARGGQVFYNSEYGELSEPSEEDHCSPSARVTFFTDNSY
T12 sequence (Q15569 whole entry): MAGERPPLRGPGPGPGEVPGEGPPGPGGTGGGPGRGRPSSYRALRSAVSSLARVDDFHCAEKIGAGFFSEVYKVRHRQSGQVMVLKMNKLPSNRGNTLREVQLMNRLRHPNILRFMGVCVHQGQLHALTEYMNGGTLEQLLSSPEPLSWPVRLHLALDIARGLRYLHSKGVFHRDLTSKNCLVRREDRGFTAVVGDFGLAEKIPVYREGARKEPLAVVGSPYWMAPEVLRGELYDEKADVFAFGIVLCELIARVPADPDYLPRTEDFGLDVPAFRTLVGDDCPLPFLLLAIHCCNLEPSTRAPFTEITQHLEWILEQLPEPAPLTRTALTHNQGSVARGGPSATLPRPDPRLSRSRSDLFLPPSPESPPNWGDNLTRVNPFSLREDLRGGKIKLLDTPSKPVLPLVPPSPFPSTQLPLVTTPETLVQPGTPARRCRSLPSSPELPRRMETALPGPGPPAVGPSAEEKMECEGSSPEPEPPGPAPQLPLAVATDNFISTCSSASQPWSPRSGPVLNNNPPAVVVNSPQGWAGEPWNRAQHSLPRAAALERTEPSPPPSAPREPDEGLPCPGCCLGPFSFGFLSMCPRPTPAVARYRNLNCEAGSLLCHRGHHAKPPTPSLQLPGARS
T7 sequence (P42336 whole entry E545K): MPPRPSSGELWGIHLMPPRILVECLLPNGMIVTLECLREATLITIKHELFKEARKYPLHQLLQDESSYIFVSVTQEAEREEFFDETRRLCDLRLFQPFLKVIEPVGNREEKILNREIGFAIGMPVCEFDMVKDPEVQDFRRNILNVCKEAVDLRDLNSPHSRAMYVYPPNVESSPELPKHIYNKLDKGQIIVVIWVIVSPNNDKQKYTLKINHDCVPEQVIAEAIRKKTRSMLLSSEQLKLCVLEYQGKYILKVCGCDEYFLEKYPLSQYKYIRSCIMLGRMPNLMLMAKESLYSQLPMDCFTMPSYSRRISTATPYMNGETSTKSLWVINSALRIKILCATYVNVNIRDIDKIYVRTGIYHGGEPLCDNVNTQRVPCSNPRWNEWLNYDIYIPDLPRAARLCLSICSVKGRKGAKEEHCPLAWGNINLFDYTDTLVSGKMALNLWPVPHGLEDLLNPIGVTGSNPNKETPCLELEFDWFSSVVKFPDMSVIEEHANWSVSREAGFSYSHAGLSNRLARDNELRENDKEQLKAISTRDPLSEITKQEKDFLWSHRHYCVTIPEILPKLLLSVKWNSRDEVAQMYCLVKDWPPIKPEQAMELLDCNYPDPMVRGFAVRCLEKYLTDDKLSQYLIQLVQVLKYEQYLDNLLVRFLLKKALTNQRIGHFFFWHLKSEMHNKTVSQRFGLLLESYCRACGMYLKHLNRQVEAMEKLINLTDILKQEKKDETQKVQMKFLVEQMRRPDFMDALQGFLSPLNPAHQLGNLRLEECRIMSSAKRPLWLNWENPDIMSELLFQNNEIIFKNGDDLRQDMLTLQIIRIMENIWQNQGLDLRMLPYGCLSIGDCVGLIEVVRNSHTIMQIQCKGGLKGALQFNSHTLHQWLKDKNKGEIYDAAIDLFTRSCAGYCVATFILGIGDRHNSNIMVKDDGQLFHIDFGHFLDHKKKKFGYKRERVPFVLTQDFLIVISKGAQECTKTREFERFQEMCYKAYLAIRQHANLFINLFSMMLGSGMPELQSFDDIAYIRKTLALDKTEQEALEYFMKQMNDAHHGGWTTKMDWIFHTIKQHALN
T10 sequence (Q13554 whole entry): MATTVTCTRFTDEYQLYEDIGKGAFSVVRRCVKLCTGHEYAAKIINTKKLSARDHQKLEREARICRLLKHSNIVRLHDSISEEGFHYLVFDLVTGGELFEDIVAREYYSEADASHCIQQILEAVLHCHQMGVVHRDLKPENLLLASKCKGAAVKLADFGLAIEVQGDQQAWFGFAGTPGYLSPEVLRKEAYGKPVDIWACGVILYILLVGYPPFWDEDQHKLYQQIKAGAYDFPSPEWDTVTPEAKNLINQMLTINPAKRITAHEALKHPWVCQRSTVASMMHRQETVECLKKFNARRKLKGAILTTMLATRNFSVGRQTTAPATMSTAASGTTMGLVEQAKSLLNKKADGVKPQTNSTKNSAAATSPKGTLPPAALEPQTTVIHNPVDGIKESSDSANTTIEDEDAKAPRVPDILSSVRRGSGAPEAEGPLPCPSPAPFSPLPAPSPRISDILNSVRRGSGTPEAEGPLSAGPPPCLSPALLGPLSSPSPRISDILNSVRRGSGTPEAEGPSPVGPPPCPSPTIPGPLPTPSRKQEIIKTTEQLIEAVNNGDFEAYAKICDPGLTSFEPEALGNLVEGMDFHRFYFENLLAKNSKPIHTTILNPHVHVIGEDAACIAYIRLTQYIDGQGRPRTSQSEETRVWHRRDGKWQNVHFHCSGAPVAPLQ
T9 sequence (P49674 whole entry): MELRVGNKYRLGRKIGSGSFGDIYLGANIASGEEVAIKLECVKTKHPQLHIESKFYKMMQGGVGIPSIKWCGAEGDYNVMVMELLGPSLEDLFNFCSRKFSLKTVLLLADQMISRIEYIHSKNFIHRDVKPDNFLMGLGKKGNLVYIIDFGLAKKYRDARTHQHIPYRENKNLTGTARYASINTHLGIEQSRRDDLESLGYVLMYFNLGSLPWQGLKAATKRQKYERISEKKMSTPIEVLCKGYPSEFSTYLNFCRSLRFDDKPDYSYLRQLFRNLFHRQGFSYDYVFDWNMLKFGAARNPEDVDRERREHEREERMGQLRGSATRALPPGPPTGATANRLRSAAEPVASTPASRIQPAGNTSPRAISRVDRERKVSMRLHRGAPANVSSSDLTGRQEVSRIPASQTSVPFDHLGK

remaining binding at 10 µM (KinomeScan kinase panel [12]; TESK1, 10 µM) [%] | remaining binding at 10 µM (KinomeScan kinase panel [15]; SRPK3, 10 µM) [%] | Compound | remaining binding at 10 µM (KinomeScan kinase panel [1]) [%] | remaining binding at 10 µM (KinomeScan kinase panel [2]) [%] | remaining binding at 10 µM (KinomeScan kinase panel [3]) [%] | remaining binding at 10 µM (KinomeScan kinase panel [4]) [%] | remaining binding at 10 µM (KinomeScan kinase panel [5]) [%] | remaining binding at 10 µM (KinomeScan kinase panel [6]) [%] | remaining binding at 10 µM (KinomeScan kinase panel [7]) [%] | remaining binding at 10 µM (KinomeScan kinase panel [8]) [%] | remaining binding at 10 µM (KinomeScan kinase panel [9]) [%] | remaining binding at 10 µM (KinomeScan kinase panel [10]) [%] | score (%) (KinomeScan kinase panel [11]) | remaining binding at 10 µM (KinomeScan kinase panel [12]; kinase TESK1, 10 µM) [%] | remaining binding at 10 µM (KinomeScan kinase panel [13]) [%] | remaining binding at 10 µM (KinomeScan kinase panel [14]) [%] | remaining binding at 10 µM (KinomeScan kinase panel [15]; kinase SRPK3, 10 µM) [%]
– | – | CCN1CCN(Cc2ccc(NC(=O)c3ccc(C)c(NC(=O)c4cncc(-c5cccs5)c4)c3)cc2C(F)(F)F)CC1 [ALW-II-41-27] | 0.2 | 0.1 | 1.5 | 8 | 0 | > 30 | > 30 | 0.1 | 0.8 | > 30 | nb (Hits values higher than 30% were considered negative (no binding: nb)) | > 30 | 12 | 5.3 | > 30
4.2 | 22 | CCN1CCN(Cc2ccc(NC(=O)c3ccc(C)c(/C=C/c4cnc5[nH]ccc5c4Cl)c3)cc2C(F)(F)F)CC1 [HG-6-63-01, (E)-3-(2-(4-chloro-1H-pyrrolo[2,3-b]pyridin-5-yl)vinyl)-N-(4-((4-ethylpiperazin-1-yl)methyl)-3-(trifluoromethyl)phenyl)-4-methylbenzamide] | 0.3 | 0 | 13 | > 30 | 0.15 | > 30 | > 30 | 0.1 | 15 | > 30 | 8.2% | – | 0.8 | > 30 | –
– | – | CCN1CCN(Cc2ccc(NC(=O)c3ccc(C)c(C#Cc4cccnc4)c3)cc2C(F)(F)F)CC1 [XMD15-44] | 0.05 | 0 | 2.5 | 4.1 | 0 | > 30 | 85 | 0.05 | > 30 | > 30 | nb (Hits values higher than 30% were considered negative (no binding: nb)) | 60 | 1 | 15 | 45

Source: publication PMC4457528, “Identification of Novel Small Molecule Inhibitors of Oncogenic RET Kinase” (PLoS ONE, 2015)
